Source: patent US8642074B2, “Thermosensitive liposomes containing therapeutic agents” (Celsion Corporation, priority 2007, dated 2014)
Values joined by “and” are separate entries in the source; they are usually repeats but may differ in a detail not shown here. Identical values can stand only once.

How the values were obtained:
[1] = In vivo drug distribution in heated and non-heated leg muscle, liposome vs free docetaxel (Example 2); design: species or system BALB/c mice
Method: Six female BALB/c mice (20±2 g) were randomly separated into 3 groups. The mice were anesthetized and put on a Styrofoam board with a hole in it. One leg of the mouse was pulled through the hole to other side of the board. The board was floated in a water bath to heat the leg at 43.5±0.5° C. for 15 min. The mice then received a tail vein injection of either liposomes at a dose of 10 mg/kg or the same dose of Taxotere (control: prepared according to the manufacturers specifications) The one leg from each mouse was then heated for 30 min. after injection and then sacrificed. Muscles from the heated and non-heated legs were excised. Drug was extracted from a fixed weight of muscle tissue using the extraction method described above. The extracted drug was analyzed by HPLC.

[2] = tested on: Lewis lung carcinoma cells; assay: In vivo efficacy in mice bearing Lewis lung tumors with local heating; design: species or system Kunming mice; details: day 18, 75 mg/m^2 on days 8, 12, 16
Method: Twelve female Kunming mice, between 7-9 weeks old and weighing 20±2 g were used. Lewis lung carcinoma cells (3×10^6 cells in 0.1 ml of PBS.) were implanted subcutaneously into the right lower leg of each mouse. Tumors were allowed to grow to 4-6 mm in diameter before starting treatment.
The 12 mice were stratified by tumor volume and randomized to 3 treatment groups: saline, free docetaxel and the thermosensitive liposomes of the invention.
Docetaxel-containing thermosensitive liposomes of the invention were prepared as described above and stored at 2-8° C. until use. Treated animals were injected with 75 mg/m^2 docetaxel either in a thermosensitive liposome of the invention or as non-liposomal Taxotere prepared according to the manufacturer's specifications.
The treatment was started on day 8 after the tumor implantation and was repeated on day 12 and day 16. Mice in all treatment groups were anesthetized with an IP injection of pentobarbital (80 mg/kg); treatment was administered in a volume of 0.2 ml via tail vein injection. This dose of anesthesia provided adequate immobilization for the 1-h treatment period.
Except for the saline group, all treatment groups were given an equivalent dose of 75 mg/m^2 of docetaxel. Immediately after injection, the mice were positioned in specially designed holders that allowed the isolated leg tumor to be placed in a water bath for 30 minutes. The water bath temperature was set at 43° C. This water bath temperature has been calibrated previously to give tumor temperatures of 42° C. All the mice were sacrificed at day 18. The tumors were surgically excised and the tumor weights were recorded. The tumor growth inhibition was calculated as follows: Tumor Inhibition Ratio=(Vs−Vx)/Vs
Where: Vs is tumor volume of saline group, Vx is the tumor volume of treatment group.

CC(=O)O[C@@]12CO[C@@H]1C[C@H](O)[C@@]1(C)C(=O)[C@H](O)C3=C(C)[C@@H](OC(=O)[C@H](O)[C@@H](NC(=O)OC(C)(C)C)c4ccccc4)C[C@@](O)([C@@H](OC(=O)c4ccccc4)[C@H]21)C3(C)C [Docetaxel, docetaxel]
drug concentration in heated compared with non heated tissue ([1]; Example 2, 10 mg/kg tail vein): the same
Adrug/Aref % (heated leg) ([1]; muscle, leg heated at 43.5±0.5° C., 10 mg/kg tail vein, HPLC, Groups 1-3, 10 mg/kg): 5.46% and 6.53% and 5.48%
Adrug/Aref % (non-heated leg) ([1]; muscle, non-heated leg, 10 mg/kg tail vein, HPLC, Groups 1-3, 10 mg/kg): 5.48% and 6.29% and 5.32%
Tumor Weight Average ([2]; group average, tumor heated 30 min, in g (unit assumed)): 1.002
Tumor Weight ([2]; individual mice, tumor heated 30 min at 42° C., listed as Docetaxel Injection, in g (unit assumed)): 0.500 and 0.118 and 1.380 and 2.010
Inhibition % ([2]; vs saline group, tumor heated 30 min): 77.91%
